Results published in patent US10669271B2, “Heterocyclic compounds as immunomodulators” (Incyte Corporation, priority 2018, dated 2020).

Legend:
PD-1/PD-L1 = PD-1/PD-L1 (Homo sapiens (Human), UniProt Q9NZQ7); assay: Homogeneous Time-Resolved Fluorescence (HTRF) PD-1/PD-L1 binding assay; details: recombinant human PD-1 and PD-L1, 25° C., pH 7.4
Experimental: Example A. Homogeneous Time-Resolved Fluorescence (HTRF) PD-1/PD-L1 Binding Assay
The assays were conducted in a standard black 384-well polystyrene plate with a final volume of 20 μL. Inhibitors were first serially diluted in DMSO and then added to the plate wells before the addition of other reaction components. The final concentration of DMSO in the assay was 1%. The assays were carried out at 25° C. in the PBS buffer (pH 7.4) with 0.05% Tween-20 and 0.1% BSA. Recombinant human PD-L1 protein (19-238) with a His-tag at the C-terminus was purchased from AcroBiosystems (PD1-H5229). Recombinant human PD-1 protein (25-167) with Fc tag at the C-terminus was also purchased from AcroBiosystems (PD1-H5257). PD-L1 and PD-1 proteins were diluted in the assay buffer and 10 μL was added to the plate well. Plates were centrifuged and proteins were preincubated with inhibitors for 40 minutes. The incubation was followed by the addition of 10 μL of HTRF detection buffer supplemented with Europium cryptate-labeled anti-human IgG (PerkinElmer-AD0212) specific for Fc and anti-His antibody conjugated to SureLight®-Allophycocyanin (APC, PerkinElmer-AD0059H). After centrifugation, the plate was incubated at 25° C. for 60 min. before reading on a PHERAstar FS plate reader (665 nm/620 nm ratio). Final concentrations in the assay were—3 nM PD1,10 nM PD-L1, 1 nM europium anti-human IgG and 20 nM anti-His-Allophycocyanin. IC50 determination was performed by fitting the curve of percent control activity versus the log of the inhibitor concentration using the GraphPad Prism 5.0 software.

[1] = test system: PD-L1 aAPC/CHO-K1 cells and Jurkat-PD-1-NFAT effector cells; assay: Nuclear factor of activated T-cells (NFAT) assay; assay type: cell-based; details: Cricetulus griseus; PD-L1 aAPC/CHO-K1 cells with Jurkat-PD-1-NFAT effector cells, 24 hours
Experimental: Example C. Nuclear Factor of Activated T-Cells (NFAT) Assay
PD-L1 aAPC/CHO-Klcells (Promega) were maintained in F-12 medium with addition of 10% FBS, 200 μg/ml Hygromycin B, 250 μg/ml Geneticin (G418). Jurkat-PD-1-NFAT effector cells (Promega) were cultured in RPMI 1640 medium supplemented with 10% FBS, 100 μg/ml Hygromycin B, 500 μg/ml G418. The culture media of PD-L1 aAPC/CHO-K1 cells were first replaced with assay medium (RPMI1640 medium with 1% FBS). The PD-L1 aAPC/CHO-K1 cells were then added in a white 384-well white clear bottom assay plate (CELLCOAT® Tissue Culture Plates, Greiner Bio-One) at 8000 per well in 10 μL assay medium. Test compounds were prepared by serial dilution in DMSO and 0.8 μL test compounds in DMSO were first transferred to the 384 REMP plate well (Thermofisher) by PlateMate Plus (Thermofisher) followed with addition of 50 μL plating medium. 5 μL compounds in the assay medium were transferred to the cells with 0.4% DMSO in the final assay at 2 μM. After removing the culture media, 10,000 Jurkat-PD-1-NFAT effector cells in 5 μL assay medium was dispensed into each well. The assay plate was incubated at 37° C., 5% CO2 for 24 hours. After the assay plate was equilibrated to room temp for 15 minutes, 20 µL/well of Bio-Glo™ reagent (Promega) were added. After 8 minutes incubation at room temperature, luminescence was read at with Pherastar microplate reader (BMG Labtech). The fold of induction (FOI) was calculated based on the ratio of luminescence normalized to the DMSO wells within each assay plate. The maximum percentage of induction was reported based on the ratio between the highest FOI of each compound and the maximum FOI of control compound within each assay plate. Wells with DMSO were served as the negative controls and wells containing control compound with the highest FOI were used as positive controls. EC50 determination was performed by fitting the curve of percent control activity versus the log of the compound concentration using the GraphPad Prism 6.0 software.

PD-L1 = PD-L1 (Homo sapiens (Human), UniProt Q9NZQ7); assay: PD-L1 whole blood internalization assay; assay type: cell-based; details: 1 ng/ml human interferon γ, PD-L1 expression on CD14+ cells, read-out: Whole Blood (24 HR) IC50
Experimental: Example D. PD-L1 Whole Blood Internalization Assay
To determine PD-L1 internalization in human whole blood, normal human blood (Biological Specialty Corp, Colmar. Pa.) was incubated in the presence or absence of a concentration range of test compounds and 1 ng/ml human interferon γ (R&D Systems Inc. Minn. […] Blood was then stained with PD-L1 (MIH1, eBioscience; or BD Biosciences San Jose, Calif.), CD14 (Life Technologies, Carlsbad, Calif.) for 30 minutes in the dark at room temperature. Whole Blood/red cells were lysed/fixed (lysis buffer BD Biosciences) for 5 minutes at 37° C. in the dark and then centrifuged at 1600 RPM for 5 minutes. Cells were resuspended in Stain Buffer (BD Bioscience, San Jose, Calif.) and transferred into 96 well round bottom plates (Corning). Cells were gated on CD14+(BD Biosciences) and PD-L1 expression determined by mean fluorescence intensity (MFI) (BD LSRFortessa™ X-20). IC50 determination was performed by fitting the curve of compound percent inhibition versus the log of the compound concentration using the GraphPad Prism 7.0 software.

[2] = test system: U2OS/PD-L1 cells and Jurkat-PD-1-SHP cells; assay: Src homology region 2 domain-containing phosphatase (SHP) assay; assay type: cell-based; details: Homo sapiens; U2OS/PD-L1 cells with Jurkat-PD-1-SHP cells, 2 hours
Experimental: Example B. Src Homology Region 2 Domain-Containing Phosphatase (SHP) Assay
U2OS/PD-L1 cells (DiscoveRx Corporation) were maintained in McCoy's 5A medium with addition of 10% FBS, 0.25 μg/ml Puromycin. After removing the culture media, the cell medium was replaced with assay medium (RPMI1640 medium with 1% FBS). The U2OS/PD-L1 cells were then added in 384-well black clear bottom assay plate (CELLCOAT® Tissue Culture Plates, Greiner Bio-One) at 5000 cells per well in 20 μL assay medium. Test compounds were prepared by serial dilution in DMSO and 125 nL compound were first transferred to the 384 REMP plate well (Thermofisher) by ECHO liquid handler (Labcyte) followed with addition of 27.5 μL assay medium. 5 μL/well compounds in the assay medium were transferred to the cell plate with 0.05% DMSO in the final assay at 0.5 μM. Jurkat-PD-1-SHP cells (DiscoveRx Corporation) were cultured in RPMI1640 medium supplemented with 10% FBS, 250 μg/ml Hygromycin B, 500 μg/ml G418. After the replacement of culture media with assay medium, 5,000 Jurkat-PD-1-SHP cells in 20 μL were dispensed into each well. The assay plate was incubated at 37° C., 5% CO2 for 2 hours before 2.5 μL PathHunter reagent 1 (DiscoveRx Corporation) were added to each well. The assay plate was shaken for 1 min at 350 rpm in the dark followed with addition of 10 μL PathHunter reagent 2 (DiscoveRx Corporation). Chemiluminescent signal was recorded with TopCount reader (Perkin Elmer) after incubation at room temperature for 1 hour. Wells with DMSO were served as the positive controls and wells containing no cells were used as negative controls. IC50 determination was performed by fitting the curve of percentage of control activity versus the log of the compound concentration using the GraphPad Prism 6.0 software.

Sequence of PD-L1 (Q9NZQ7 19-290): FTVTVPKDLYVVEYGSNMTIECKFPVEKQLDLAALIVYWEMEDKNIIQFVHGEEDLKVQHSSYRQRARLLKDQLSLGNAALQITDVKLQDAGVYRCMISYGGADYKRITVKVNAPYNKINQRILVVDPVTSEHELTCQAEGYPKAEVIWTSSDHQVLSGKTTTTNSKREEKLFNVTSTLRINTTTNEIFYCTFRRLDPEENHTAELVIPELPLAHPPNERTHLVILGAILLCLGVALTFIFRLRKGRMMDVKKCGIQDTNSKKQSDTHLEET
Sequence of PD-1/PD-L1 (Q9NZQ7 19-238): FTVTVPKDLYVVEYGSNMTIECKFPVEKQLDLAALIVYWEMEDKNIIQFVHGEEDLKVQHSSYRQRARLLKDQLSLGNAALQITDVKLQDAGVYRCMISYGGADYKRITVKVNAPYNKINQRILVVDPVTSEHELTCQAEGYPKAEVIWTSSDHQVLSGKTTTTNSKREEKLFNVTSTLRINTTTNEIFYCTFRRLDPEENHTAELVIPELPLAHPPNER

SMILES	IC50 (PD-1/PD-L1) [nM]	IC50 (PD-L1) [nM]	IC50 [2] [nM]	EC50 [1] [nM]
Cc1c(Nc2nc(C(F)(F)F)nc3cc(CN4CC[C@@H](O)C4)cnc23)cccc1-c1cccc(-c2nc3cc(CN4CC[C@@H](C(=O)O)C4)cc(C#N)c3o2)c1C [Example 20, (R)-1-((7-cyano-2-(3′-(7-(((R)-3-hydroxypyrrolidin-1-yl)methyl)-2-(trifluoromethyl)pyrido[3,2-d]pyrimidin-4-ylamino)-2,2′-dimethylbiphenyl-3-yl)benzo[d]oxazol-5-yl)methyl)pyrrolidine-3-carboxylic Acid]	–	10 to 100	≤ 10	10 to 100
Cc1c(Nc2nc(C(F)F)nc3cc(CN4CC[C@@H](O)C4)cnc23)cccc1-c1cccc(-c2nc3cc(CN4CCC(C(=O)NCCC(=O)O)CC4)cc(C#N)c3o2)c1C [Example 27, (R)-3-(1-((7-cyano-2-(3′-(2-(difluoromethyl)-7-((3-hydroxypyrrolidin-1-yl)methyl)pyrido[3,2-d]pyrimidin-4-ylamino)-2,2′-dimethylbiphenyl-3-yl)benzo[d]oxazol-5-yl)methyl)piperidine-4-carboxamido)propanoic Acid]	≤ 10	10 to 100	–	10 to 100
Cc1c(Nc2nc(C(F)F)nc3cc(CN4CC[C@@H](O)C4)cnc23)cccc1-c1cccc(-c2nc3cc(CN4CCC(C(=O)N(C)C)CC4)cc(C#N)c3o2)c1C [Example 25, (R)-1-((7-cyano-2-(3′-(2-(difluoromethyl)-7-((3-hydroxypyrrolidin-1-yl)methyl)pyrido[3,2-d]pyrimidin-4-ylamino)-2,2′-dimethylbiphenyl-3-yl)benzo[d]oxazol-5-yl)methyl)-N,N-dimethylpiperidine-4-carboxamide]	≤ 10	10 to 100	–	10 to 100
Cc1c(Nc2nc(CO)nc3cc(CN4CC[C@@H](O)C4)cnc23)cccc1-c1cccc(-c2nc3cc(CN4CCC(C(=O)O)CC4)cc(C#N)c3o2)c1C [Example 32, (R)-1-((7-cyano-2-(3′-(2-(hydroxymethyl)-7-((3-hydroxypyrrolidin-1-yl)methyl)pyrido[3,2-d]pyrimidin-4-ylamino)-2,2′-dimethylbiphenyl-3-yl)benzo[d]oxazol-5-yl)methyl)piperidine-4-carboxylic Acid]	≤ 10	10 to 100	–	10 to 100

The next lines start with results.

IC50 (PD-1/PD-L1) [nM]	IC50 (PD-L1) [nM]	IC50 [2] [nM]	SMILES	EC50 [1] [nM]
≤ 10	10 to 100	–	Cc1c(Nc2nc(C(F)F)nc3cc(CN4CC[C@@H](O)C4)cnc23)cccc1-c1cccc(-c2nc3cc(CN4CCC(C)(C(=O)O)CC4)cc(C#N)c3o2)c1C [Example 24, (R)-1-((7-cyano-2-(3′-(2-(difluoromethyl)-7-((3-hydroxypyrrolidin-1-yl)methyl)pyrido[3,2-d]pyrimidin-4-ylamino)-2,2′-dimethylbiphenyl-3-yl)benzo[d]oxazol-5-yl)methyl)-4-methylpiperidine-4-carboxylic Acid]	10 to 100
≤ 10	10 to 100	–	CNC(=O)C1CCN(Cc2cc(C#N)c3oc(-c4cccc(-c5cccc(Nc6nc(C(F)F)nc7cc(CN8CC[C@@H](O)C8)cnc67)c5C)c4C)nc3c2)CC1 [Example 26, (R)-1-((7-cyano-2-(3′-(2-(difluoromethyl)-7-((3-hydroxypyrrolidin-1-yl)methyl)pyrido[3,2-d]pyrimidin-4-ylamino)-2,2′-dimethylbiphenyl-3-yl)benzo[d]oxazol-5-yl)methyl)-N-methylpiperidine-4-carboxamide]	≤ 10
≤ 10	10 to 100	–	Cc1c(Nc2nc(C(F)F)nc3cc(CN4CC[C@@H](O)C4)cnc23)cccc1-c1cccc(-c2nc3cc(CN4CC[C@](C)(C(=O)O)C4)cc(C#N)c3o2)c1C [Example 23, (S)-1-((7-cyano-2-(3′-(2-(difluoromethyl)-7-(((R)-3-hydroxypyrrolidin-1-yl)methyl)pyrido[3,2-d]pyrimidin-4-ylamino)-2,2′-dimethylbiphenyl-3-yl)benzo[d]oxazol-5-yl)methyl)-3-methylpyrrolidine-3-carboxylic Acid]	≤ 10
≤ 10	100 to 500	–	Cc1c(Nc2nc(C(F)F)cc3cc(CN4CC[C@@H](O)C4)cnc23)cccc1-c1cccc(-c2nc3cc(CN4CC[C@@](C)(C(=O)O)C4)cc(C#N)c3o2)c1C [Example 34, (R)-1-((7-cyano-2-(3′-(6-(difluoromethyl)-3-(((R)-3-hydroxypyrrolidin-1-yl)methyl)-1,7-naphthyridin-8-ylamino)-2,2′-dimethylbiphenyl-3-yl)benzo[d]oxazol-5-yl)methyl)-3-methylpyrrolidine-3-carboxylic Acid]	≤ 10
≤ 10	10 to 100	–	Cc1c(Nc2nc(C(F)F)nc3cc(CN4CC[C@@H](O)C4)cnc23)cccc1-c1cccc(-c2nc3cc(CN4CC[C@H](C(=O)O)C4)cc(C#N)c3o2)c1C [Example 22, (S)-1-((7-cyano-2-(3′-(2-(difluoromethyl)-7-(((R)-3-hydroxypyrrolidin-1-yl)methyl)pyrido[3,2-d]pyrimidin-4-ylamino)-2,2′-dimethylbiphenyl-3-yl)benzo[d]oxazol-5-yl)methyl)pyrrolidine-3-carboxylic Acid]	10 to 100
